Values quoted from earlier work, collected in patent publication US8476259B2, “Fasudil in combination therapies for the treatment of pulmonary arterial hypertension” (Asahi Kasei Pharma Corporation, priority 2005, dated 2013).
Read-outs that look alike come from different tables or passages of the source.

Legend:
[1] = system: Rho-kinase; conditions: administered to rats
[2] = system: PAH; conditions: oral
[3] = system: progressive pulmonary arterial hypertension; conditions: two experimental models
[4] = target: Rho-kinase; conditions: read-out: K(i) value for Rho-kinase
[5] = system: pulmonary hypertension in rats; conditions: for pulmonary vasodilation: spontaneous PH in fawn-hooded rats
[6] = system: chronically hypoxic rats; conditions: for high pulmonary arterial pressure: intravenous or oral treatment
[7] = system: chronic hypoxic mice; conditions: for development of chronic hypoxia-induced PH: intravenous or oral treatment
[8] = system: monocrotaline-induced PH in rats; conditions: for pulmonary arterial lesions: intravenous or oral treatment
[9] = system: rat models of systemic hypertension; conditions: oral
[10] = system: patients with severe pulmonary hypertension; conditions: intravenous
[11] = system: patients with severe PAH; conditions: versus placebo
[12] = system: patients with pulmonary hypertension; conditions: aerosolization
[13] = system: rats injected with IL-6; conditions: simultaneous treatment
[14] = system: spontaneously hypertensive rats; conditions: rat, in vivo
[15] = system: patients with Raynaud's phenomenon and systemic sclerosis; conditions: human, in vivo
[16] = system: patients with angiographically proven stable angina
[17] = in vivo
[18] = inhaled, monocrotaline-induced PH, chronically hypoxic rats
[19] = all 20 patients, 100 mg 3 times a day, 2 weeks
[20] = subgroup (n=8) with well-developed collaterals

## CC#CCC(C)[C@H](O)/C=C/[C@@H]1[C@H]2c3cccc(CCCC(=O)O)c3O[C@H]2C[C@H]1O (mixture of isomers) [beraprost]
[1]
  inhibitory effect on Rho-kinase: lack the inhibitory effect on Rho-kinase
[2]
  benefit in PAH over time: benefit in a study in PAH at 3 and 6 months but not at 9 or 12 months

## Cc1ccc(NC(=O)c2ccc(CN3CCN(C)CC3)cc2)cc1Nc1nccc(-c2cccnc2)n1 [Gleevec]
[3]
  lung vascular remodeling, pulmonary hypertension and right heart hypertrophy: virtually complete reversal

## Cc1cncc2cccc(S(=O)(=O)N3CCCNC[C@@H]3C)c12 [H-1152P, (S)-(+)-2-methyl-1-[(4-methyl-5-isoquinoline)sulfonyl]-homopiperazine]
[4]
  Ki: 1.6 nM

## C[C@@H](N)[C@H]1CC[C@H](C(=O)Nc2ccncc2)CC1 [Y-27632]
[5]; 5 minutes of inhaled Y-27632
  mean pulmonary arterial pressure: decreased mean pulmonary arterial pressure without reducing mean systemic arterial pressure
[5]; inhaled
  duration of hypotensive effect on hypoxic pulmonary hypertension: at least 5 hrs
[5]; [18]
  pulmonary vasodilation: sustained and selective pulmonary vasodilation
[6]; intravenous
  elevated pulmonary artery pressure, acute effect: nearly normalized the elevated pulmonary artery pressure
[6]
  high pulmonary arterial pressure: nearly normalizes
[7]
  development of chronic hypoxia-induced PH: attenuates
[8]
  pulmonary arterial lesions: reduces pulmonary arterial lesions
[9]; normotensive rats
  hypotensive effect: smaller transient effect
[9]; rat models of systemic hypertension
  hypotensive effect: potent hypotensive effects

## COc1ccccc1Oc1c(NS(=O)(=O)c2ccc(C(C)(C)C)cc2)nc(-c2ncccn2)nc1OCCO [bosentan]
Higher dose
  liver toxicity: liver toxicity occurred with the higher dose
Whole group, greater improvement at higher doses
  six minute walk test: improved

## O=S(=O)(c1cccc2cnccc12)N1CCCNCC1 [fasudil, 1-(5-isoquinolinesulfonyl)-homopiperazine]
[5]; inhaled fasudil, monocrotaline-induced PH, spontaneous PH, chronically hypoxic rats
  mean pulmonary arterial pressure: selective mean pulmonary arterial pressure reductions
[5]; [18]
  pulmonary vasodilation: sustained and selective pulmonary vasodilation
[6]
  high pulmonary arterial pressure: nearly normalizes
[7]
  development of chronic hypoxia-induced PH: attenuates
[8]
  pulmonary arterial lesions: reduces pulmonary arterial lesions
[10]
  pulmonary vascular resistance: significantly reduced
  side effects: without side effects

## CC#CCC(C)[C@H](O)/C=C/[C@@H]1[C@H]2C/C(=C/CCCC(=O)O)C[C@H]2C[C@H]1O (some centres unmarked) [iloprost]
[11]
  exercise capacity: improved exercise capacity

## CCCCC[C@H](O)/C=C/[C@@H]1[C@H]2C/C(=C/CCCC(=O)O)O[C@H]2C[C@H]1O [prostacyclin]
[1]
  inhibitory effect on Rho-kinase: lack the inhibitory effect on Rho-kinase
[12]
  duration of effects: 15 min

## COc1cccc(CCc2ccccc2OCC(CN(C)C)OC(=O)CCC(=O)O)c1 (centres unmarked) [sarpogrelate, (φ-amino-alkoxy)phenyl-ethylethylbenzene]
[8]; immediately following monocrotaline injection
  pulmonary vascular remodeling, right side heart failure and mortality: suppressed the severe pulmonary vascular remodeling and right side heart failure and reduced mortality
[8]; late treatment
  reversal of established pulmonary hypertension: failed to reverse established pulmonary hypertension
[8]; rat, in vivo
  number of proliferating cell nuclear antigen-positive cells: reduced
  severity of pulmonary hypertension (medial thickness of small pulmonary arteries and right ventricle/left ventricle and septum ratio): reduced
  thickening of the alveolar walls and interstitial inflammatory cell infiltration: reduced
[13]
  IL-6-induced increase in medial thickness of small pulmonary arteries and right ventricular hypertrophy: prevented
[14]
  systolic blood pressure or heart weight: no effect
[15]
  respiratory failure and mean pulmonary arterial pressure: significantly decreased
[16]; [19]
  SAS score: significantly increased
  exercise time to the onset of 0.1-mV ST depression: prolonged
[16]; patients (n=12) without well-developed collaterals
  all parameters: not significantly changed
[16]; [20]
  SAS score: 6.2±1.3 METS
  increase of double product at the onset of 0.1-mV ST depression: 15%
  time to the onset of 0.1-mV ST depression: 295 ± 127 s

## CCCc1nn(C)c2c(=O)[nH]c(-c3cc(S(=O)(=O)N4CCN(C)CC4)ccc3OCC)nc12 [sildenafil]
[6]; sildenafil, chronic hypoxic rats
  pulmonary arterial pressure: reduces
[7]; chronic hypoxic mice
  right ventricular hypertrophy: reduces right ventricular hypertrophy
[8]; PH induced by monocrotaline injection
  survival rate: improves survival rate

## Cc1cc2c(cc1CC(=O)c1sccc1S(=O)(=O)Nc1onc(C)c1Cl)OCO2 [sitaxsentan]
[17]
  decrease in pulmonary vascular resistance: 30%
  six minute walk test: improvement
